Measured values published in patent US20240156742A1, “TARGETED MULTIFUNCTIONAL NANOSTRUCTURED LIPID CARRIERS” (TECHNION RESEARCH & DEVELOPMENT FOUNDATION LIMITED, priority 2021, published 2024).

Tests used:
[1] = system: LNCaP target cells (PSMA-positive PC cell line); assay: XTT growth inhibition assay, LNCaP; assay type: cell-based; details: Homo sapiens, free drug in growth medium for 72 hr
Procedure: (§1) The selective growth inhibition of CTX-loaded NPs was studied in LNCaP target cells and PC-3 non-target cells, using an XTT-based colorimetric cell proliferation kit as previously described. The preparation of CTX-loaded NPs was performed as described and had undergone 24 hr dialysis before cell exposure, to simulate the conditions in the human body. The dialysis was conducted as described in the “Kinetic profile of in vitro drug release” in the materials and methods section, but with the use of 10% FBS to capture the released CTX. Prior to the experiment, 96-well plates were coated with poly-L-Lysine before cell plating. LNCaP and PC-3 cells were seeded in 96-well plates at 5×10^4 and 2.5×10^4 cells/ml, respectively, and incubated overnight to allow for cell attachment. Following exposure of cells to CTX-loaded NPs at increasing CTX concentrations of 0.001-100 nM for 24 hr, cells were incubated for additional 72 hr with fresh growth medium. Cellular growth inhibition was determined by adding the XTT reagent. Data were plotted using a nonlinear curve fitting of a sigmoidal model (Hill1) with OriginPro 9.0 to obtain a dose-response curve according to Equation (3): […]

[2] = system: PC-3 non-target cells (PSMA-negative PC cell line); assay: XTT growth inhibition assay, PC-3; assay type: cell-based; details: Homo sapiens; free drug in growth medium for 72 hr
Procedure: as §1

LNCaP cells = details: exposure for 48 hr; cited from earlier work
[3] = Kinetic profile of in vitro drug release by dialysis; assay type: physicochemical; details: dialysis in PBS pH 7.4 with 0.1% Tween 80, 37° C., 72 hr; burst within first 10 hr
Procedure: The kinetics of in vitro release of drugs from the loaded NPs and free drugs were studied by the dialysis method. One (1) ml of drug-loaded NPs or free drugs (both systems in DW) were placed in dialysis bags (molecular weight cutoff of 3.5 kDa, Sigma-Aldrich, Merck, Rehovot, Israel) and incubated in 30 ml volume of plasma simulating buffer comprising phosphate-buffered saline (PBS, 10 mM, pH 7.4) containing 0.1% tween 80 for 72 hr, at 37° C., with continuous gentle agitation. At defined time intervals (0, 2, 4, 6, 10, 23, 29, 36, 47, 58, 72 hr), the dialysate was collected and replaced by the same volume of fresh release buffer. To calculate the cumulative release of drugs, the dialysates from each time point were freeze-dried, dissolved in EtOH or DMSO for CTX or ENZ extraction, respectively, filtered through 0.45 μm membrane, and quantified using RP-HPLC, as described above. The results are presented as means of two experiments±SE.
The kinetics of in vitro release of CTX and ENZ from NPs were assessed by dialysis in a large volume of a plasma-simulating buffer for 72 hr at 37° C., with continuous mixing. […] At defined time intervals, the dialysate was replaced with a fresh buffer, and the drug was quantified using RP-HPLC. […]

CO[C@H]1C(=O)[C@]2(C)[C@@H](OC)C[C@H]3OC[C@@]3(OC(C)=O)[C@H]2[C@H](OC(=O)c2ccccc2)[C@]2(O)C[C@H](OC(=O)[C@H](O)[C@@H](NC(=O)OC(C)(C)C)c3ccccc3)C(C)=C1C2(C)C [free CTX, Cabazitaxel]
IC50 [1]: 0.25 ± 0.04 nM
IC50 [2]: 0.18 ± 0.04 nM
IC50 (LNCaP cells): 2.6 to 3.1 nM
in vitro release profile [3]: burst release

CNC(=O)c1ccc(N2C(=S)N(c3ccc(C#N)c(C(F)(F)F)c3)C(=O)C2(C)C)cc1F [unencapsulated ENZ, Enzalutamide]
in vitro release profile [3]: burst release
